Assay results from ChEMBL document CHEMBL3745645, “Synthesis, in vitro antitumor activity, dihydrofolate reductase inhibition, DNA intercalation and structure-activity relationship studies of 1,3,5-triazine analogues” (Bioorg Med Chem Lett, 2016).
The source made the active and inactive calls. No cut-off for these calls is given here.

Experiments:
Assay type in all cases: functional
[1] = Cytotoxicity against human SW620 cells at 10 uM after 48 hrs by SRB assay; settings: SW-620, 48 h, read-out: GI
[2] = Cytotoxicity against human HCT15 cells at 10 uM after 48 hrs by SRB assay; settings: HCT-15, 48 h, read-out: GI
[3] = test system: SNB-19; test: Cytotoxicity against human SNB19 cells at 10 uM after 48 hrs by SRB assay
[4] = Cytotoxicity against human HCT116 cells at 10 uM after 48 hrs by SRB assay; settings: HCT-116, 48 h, read-out: GI
[5] = Cytotoxicity against human OVCAR5 cells at 10 uM after 48 hrs by SRB assay; settings: OVCAR-5, 48 h, read-out: GI
[6] = Cytotoxicity against human UACC62 cells at 10 uM after 48 hrs by SRB assay; settings: UACC-62, 48 h, read-out: GI
[7] = Cytotoxicity against human UO31 cells at 10 uM after 48 hrs by SRB assay; settings: UO-31, 48 h, read-out: GI
[8] = test system: T47D; test: Cytotoxicity against human T47D cells at 10 uM after 48 hrs by SRB assay
[9] = Cytotoxicity against human MOLT4 cells at 10 uM after 48 hrs by SRB assay; settings: MOLT-4, 48 h, read-out: GI
[10] = test system: MDA-MB-231; test: Cytotoxicity against human MDA-MB-231 cells at 10 uM after 48 hrs by SRB assay; settings: MDA-MB-231, 48 h, read-out: GI
[11] = Cytotoxicity against human SF539 cells at 10 uM after 48 hrs by SRB assay; settings: SF-539, 48 h, read-out: GI
[12] = Cytotoxicity against human OVCAR3 cells at 10 uM after 48 hrs by SRB assay; settings: OVCAR-3, 48 h, read-out: GI
[13] = Cytotoxicity against human SF268 cells at 10 uM after 48 hrs by SRB assay; settings: SF-268, 48 h, read-out: GI
[14] = Cytotoxicity against human UACC257 cells at 10 uM after 48 hrs by SRB assay; settings: UACC-257, 48 h, read-out: GI
[15] = test system: MDA-MB-435; test: Cytotoxicity against human MDA-MB-435 cells at 10 uM after 48 hrs by SRB assay; settings: MDA-MB-435, 48 h, read-out: GI
[16] = test system: TK-10; test: Cytotoxicity against human TK10 cells at 10 uM after 48 hrs by SRB assay
[17] = test system: CCRF-CEM; test: Cytotoxicity against human CCRF-CEM cells at 10 uM after 48 hrs by SRB assay; settings: read-out: GI
[18] = Cytotoxicity against human HOP62 cells at 10 uM after 48 hrs by SRB assay; settings: HOP-62, 48 h, read-out: GI
[19] = test system: HT-29; test: Cytotoxicity against human HT-29 cells at 10 uM after 48 hrs by SRB assay; settings: HT-29, 48 h, read-out: GI
[20] = Cytotoxicity against human HOP92 cells at 10 uM after 48 hrs by SRB assay; settings: HOP-92, 48 h, read-out: GI
[21] = Cytotoxicity against human SNB75 cells at 10 uM after 48 hrs by SRB assay; settings: SNB-75, 48 h, read-out: GI
[22] = test system: NCI-H460; test: Cytotoxicity against human NCI-H460 cells at 10 uM after 48 hrs by SRB assay; settings: NCI-H460, 48 h, read-out: GI
[23] = Cytotoxicity against human RXF393 cells at 10 uM after 48 hrs by SRB assay; settings: RXF 393, 48 h, read-out: GI
[24] = Cytotoxicity against human Hs 578T cells at 10 uM after 48 hrs by SRB assay; settings: read-out: GI
[25] = test system: Malme-3M; test: Cytotoxicity against human MALME-3M cells at 10 uM after 48 hrs by SRB assay; settings: read-out: GI
[26] = Cytotoxicity against human IGROV1 cells at 10 uM after 48 hrs by SRB assay; settings: IGROV-1, 48 h, read-out: GI
[27] = test system: MDA-MB-468; test: Cytotoxicity against human MDA-MB-468 cells at 10 uM after 48 hrs by SRB assay; settings: MDA-MB-468, 48 h, read-out: GI
[28] = Cytotoxicity against human RPMI8226 cells at 10 uM after 48 hrs by SRB assay; settings: RPMI-8226, 48 h, read-out: GI
[29] = Cytotoxicity against human SF295 cells at 10 uM after 48 hrs by SRB assay; settings: SF-295, 48 h, read-out: GI
[30] = Cytotoxicity against human PC3 cells at 10 uM after 48 hrs by SRB assay; settings: PC-3, 48 h, read-out: GI
[31] = test system: KM12; test: Cytotoxicity against human KM12 cells at 10 uM after 48 hrs by SRB assay; settings: KM12, 48 h, read-out: GI
[32] = test system: ACHN; test: Cytotoxicity against human ACHN cells at 10 uM after 48 hrs by SRB assay; settings: read-out: GI
[33] = test system: SK-MEL-28; test: Cytotoxicity against human SK-MEL-28 cells at 10 uM after 48 hrs by SRB assay
[34] = Cytotoxicity against human HCC2998 cells at 10 uM after 48 hrs by SRB assay; settings: HCC 2998, 48 h, read-out: GI
[35] = test system: A549; test: Cytotoxicity against human A549 cells at 10 uM after 48 hrs by SRB assay; settings: A549, 48 h, read-out: GI
[36] = test system: COLO 205; test: Cytotoxicity against human COLO205 cells at 10 uM after 48 hrs by SRB assay
[37] = test system: K562; test: Cytotoxicity against human K562 cells at 10 uM after 48 hrs by SRB assay; settings: K562, 48 h, read-out: GI
[38] = test system: SK-OV-3; test: Cytotoxicity against human SKOV3 cells at 10 uM after 48 hrs by SRB assay
[39] = test system: NCI/ADR-RES; test: Cytotoxicity against human NCI-ADR-RES cells at 10 uM after 48 hrs by SRB assay
[40] = Cytotoxicity against human Caki1 cells at 10 uM after 48 hrs by SRB assay; settings: CAKI-1, 48 h, read-out: GI
[41] = test system: SK-MEL-2; test: Cytotoxicity against human SK-MEL-2 cells at 10 uM after 48 hrs by SRB assay
[42] = test system: MCF7; test: Cytotoxicity against human MCF7 cells at 10 uM after 48 hrs by SRB assay; settings: MCF7, 48 h, read-out: GI
[43] = test system: 786-0; test: Cytotoxicity against human 786-0 cells at 10 uM after 48 hrs by SRB assay; settings: 786-0, 48 h, read-out: GI
[44] = test system: NCI-H522; test: Cytotoxicity against human NCI-H522 cells at 10 uM after 48 hrs by SRB assay; settings: NCI-H522, 48 h, read-out: GI
[45] = Cytotoxicity against human DU145 cells at 10 uM after 48 hrs by SRB assay; settings: DU-145, 48 h, read-out: GI
[46] = Cytotoxicity against human LOXIMVI cells at 10 uM after 48 hrs by SRB assay; settings: LOX IMVI, read-out: GI
[47] = test system: BT-549; test: Cytotoxicity against human BT549 cells at 10 uM after 48 hrs by SRB assay
[48] = test system: NCI-H226; test: Cytotoxicity against human NCI-H226 cells at 10 uM after 48 hrs by SRB assay; settings: NCI-H226, 48 h, read-out: GI
[49] = Cytotoxicity against human HL-60(TB) cells at 10 uM after 48 hrs by SRB assay; settings: HL-60, 48 h, read-out: GI
[50] = test system: SN12C; test: Cytotoxicity against human SN12C cells at 10 uM after 48 hrs by SRB assay; settings: read-out: GI
[51] = test system: SR; test: Cytotoxicity against human SR cells at 10 uM after 48 hrs by SRB assay; settings: read-out: GI
[52] = test system: M14; test: Cytotoxicity against human M14 cells at 10 uM after 48 hrs by SRB assay
[53] = test system: A498; test: Cytotoxicity against human A498 cells at 10 uM after 48 hrs by SRB assay; settings: A498, 48 h, read-out: GI
[54] = Cytotoxicity against human OVCAR8 cells at 10 uM after 48 hrs by SRB assay; settings: OVCAR-8, 48 h, read-out: GI
[55] = Cytotoxicity against human OVCAR4 cells at 10 uM after 48 hrs by SRB assay; settings: OVCAR-4, 48 h, read-out: GI
[56] = test system: SK-MEL-5; test: Cytotoxicity against human SK-MEL-5 cells at 10 uM after 48 hrs by SRB assay; settings: SK-MEL-5, 48 h, read-out: GI

SMILES: Cc1nc2cc(Nc3nc(Nc4ccc(O)cc4)nc(Nc4ccc(F)cc4)n3)ccc2n1Cc1ccccc1
- inhibition of growth at 10 µM [1]: 18.8%
- inhibition of growth at 10 µM [2]: 17.3%
- growth inhibition (GI) [3]: inactive
- inhibition of growth at 10 µM [4]: 10.6%
- inhibition of growth at 10 µM [5]: 3.66%
- inhibition of growth at 10 µM [6]: 3.94%
- inhibition of growth at 10 µM [7]: 6.02%
- growth inhibition (GI) [8]: inactive
- inhibition of growth at 10 µM [9]: 19.8%
- inhibition of growth at 10 µM [10]: 11.3%
- inhibition of growth at 10 µM [11]: 6.34%
- inhibition of growth at 10 µM [12]: 8.38%
- inhibition of growth at 10 µM [13]: 11.2%
- inhibition of growth at 10 µM [14]: 3.73%
- inhibition of growth at 10 µM [15]: 4.26%
- growth inhibition (GI) [16]: inactive
- inhibition of growth at 10 µM [17]: 8.15%
- inhibition of growth at 10 µM [18]: 3.47%
- inhibition of growth at 10 µM [19]: 4.8%
- inhibition of growth at 10 µM [20]: 17.8%
- inhibition of growth at 10 µM [21]: 15.1%
- inhibition of growth at 10 µM [22]: 18.2%
- inhibition of growth at 10 µM [23]: 18.8%
- inhibition of growth at 10 µM [24]: 1.42%
- inhibition of growth at 10 µM [25]: 0.89%
- inhibition of growth at 10 µM [26]: 2.23%
- inhibition of growth at 10 µM [27]: 13.4%
- inhibition of growth at 10 µM [28]: 26.7%
- inhibition of growth at 10 µM [29]: 5.35%
- inhibition of growth at 10 µM [30]: 10.7%
- inhibition of growth at 10 µM [31]: 17.6%
- inhibition of growth at 10 µM [32]: 8.7%
- growth inhibition (GI) [33]: inactive
- inhibition of growth at 10 µM [34]: 4.67%
- inhibition of growth at 10 µM [35]: 22.2%
- growth inhibition (GI) [36]: inactive
- inhibition of growth at 10 µM [37]: 21.3%
- growth inhibition (GI) [38]: inactive
- growth inhibition (GI) [39]: inactive
- inhibition of growth at 10 µM [40]: 4.53%
- growth inhibition (GI) [41]: inactive
- inhibition of growth at 10 µM [42]: 16%
- inhibition of growth at 10 µM [43]: 6.04%
- inhibition of growth at 10 µM [44]: 15.1%
- inhibition of growth at 10 µM [45]: 41.6%
- inhibition of growth at 10 µM [46]: 3.79%
- growth inhibition (GI) [47]: inactive
- inhibition of growth at 10 µM [48]: 12.8%
- inhibition of growth at 10 µM [49]: 6.96%
- inhibition of growth at 10 µM [50]: 2.54%
- inhibition of growth at 10 µM [51]: 20.8%
- growth inhibition (GI) [52]: inactive
- inhibition of growth at 10 µM [53]: 13.4%
- inhibition of growth at 10 µM [54]: 22.2%
- inhibition of growth at 10 µM [55]: 12.8%
- inhibition of growth at 10 µM [56]: 5.6%
